Laboratory results from patent publication US7253211B2, “(R)-chiral halogenated substituted fused heterocyclic amino compounds useful for inhibiting cholesterol ester transfer protein activity” (Pfizer Inc., priority 1999, dated 2007).

Columns and labels:
plasma HDL [1] = test: Assay of Plasma HDL Elevation In Vivo: cynomologous monkeys; conditions: oral gavage 10 mpk q.d. up to 11 days, corn oil based vehicle
Experimental: Alternatively, cynomologous monkeys were maintained on a normal chow diet. […] Plasma levels of drug were detected throughout the experiment in treated animals at ranges of 0.1-1.5 μg/mL. Periodically, plasma samples were taken and analyzed for total cholesterol and HDL.

plasma HDL [2] = test: Assay of Plasma HDL Elevation In Vivo: lipoprotein profile in hCETP mice; design: species or system C57b1 mouse expressing human CETP; conditions: oral dose 30 mpk qd, 5 days
Experimental: Alternatively, a strain of C57b1 mouse was made to transgenicaly express human CETP. […] The hCETP mice were made hypercholesterolemic by feeding cholesterol and fat supplemented chow for a minimum of two weeks, as described above. Test compounds were administered orally in selected aqueous or oil based vehicles for up to 1 week. Serum was obtained and analyzed by size exclusion chromatography for the relative abundance of VLDL, LDL and HDL.

plasma HDL [3] = test: Assay of Plasma HDL Elevation In Vivo: rabbits
Experimental: Alternatively, rabbits were maintained on a normal chow diet. […] Plasma concentrations of drug were detected throughout the duration of the pump infusion in treated animals and averaged 1.2 μg/mL. Periodically, plasma samples were taken and analyzed for triglycerides, total cholesterol, and HDL.

plasma HDL [4] = test: Assay of Plasma HDL Elevation In Vivo: lipoprotein profile in hamster; design: species or system Syrian Golden hamsters; conditions: oral dose 30 mpk qd, 5 days
Experimental: Assay of Plasma HDL Elevation In Vivo.
Syrian Golden hamsters were made hypercholesterolemic by feeding cholesterol supplemented chow for a minimum of two weeks, as described above. Test compounds were administered orally in selected aqueous or oil based vehicles for up to 1 week. Serum was obtained and analyzed by precipitation or size exclusion chromatography for the relative abundance of VLDL, LDL and HDL.

CETP = test: Assay of CETP Inhibition In Vivo: CETP-mediated transfer in hamster; design: species or system golden Syrian hamsters; conditions: single oral dose 10 mpk
Experimental: Assay of CETP Inhibition In Vivo.
Male golden Syrian hamsters were maintained on a diet of chow containing 0.24% cholesterol for at least two weeks prior to the study. For animals receiving intravenous dosing immediately before the experiment, animals were anesthetized with pentobarbital. Anesthesia was maintained throughout the experiment. In-dwelling catheters were inserted into the jugular vein and carotid artery. At the start of the experiment all animals received 0.2 mL of a solution containing [^3H]CE-HDL into the jugular vein. […] After centrifugation, the resulting supernatant (25 μL) containing the HDL was analyzed for radioactivity using a liquid scintillation counter.
(§1) The percentage [^3H]CE transferred from HDL to LDL and VLDL (% transfer) was calculated based on the total radioactivity in equivalent plasma samples before precipitation.
Alternatively, conscious, non-anesthetized animals received an oral gavage dose of test compound as a suspension in 0.1% methyl cellulose in water. At a time determined for each compound at which plasma levels of the test substance reached their peak (Cmax) after oral dosing, the animals were anesthetized with pentobarbital and then dosed with 0.2 mL of a solution containing [^3H]CE-HDL into the jugular vein as described above. […]

human CETP (hCETP) = target: T1, human CETP (hCETP) (Homo sapiens, UniProt P11597); test: Assay of CETP Inhibition In Vivo: CETP-mediated transfer in hCETP mice; conditions: single oral dose 60 mpk
T1 construct: expressed in transfected cells; host or cells: transgenic C57Bl/6 mice homozygous for the hCETP gene
T1 sequence (P11597 18-493): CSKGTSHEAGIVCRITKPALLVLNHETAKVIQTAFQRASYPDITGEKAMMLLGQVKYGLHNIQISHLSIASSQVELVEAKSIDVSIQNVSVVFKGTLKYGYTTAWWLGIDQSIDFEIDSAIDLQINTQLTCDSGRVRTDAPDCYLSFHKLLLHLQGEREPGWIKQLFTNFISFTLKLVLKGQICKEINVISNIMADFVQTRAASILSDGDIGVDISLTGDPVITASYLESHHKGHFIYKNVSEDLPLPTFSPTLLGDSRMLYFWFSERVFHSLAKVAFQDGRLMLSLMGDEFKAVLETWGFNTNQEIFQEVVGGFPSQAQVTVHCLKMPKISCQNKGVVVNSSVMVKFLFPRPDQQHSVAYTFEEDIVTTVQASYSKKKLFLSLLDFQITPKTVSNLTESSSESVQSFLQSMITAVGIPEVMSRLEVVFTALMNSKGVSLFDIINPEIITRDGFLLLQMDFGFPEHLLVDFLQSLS
Description: C57B1/6 mice that were homozygous for the hCETP gene were maintained on a high fat chow diet, such as TD 88051, as described by Nishina et al. (J Lipid Res., 31, 859-869 (1990)) for at least two weeks prior to the study. Mice received an oral gavage dose of test compound as a suspension in 0.1% methyl cellulose in water or an intravenous bolus injection of test compound in 10% ethanol and 90% polyethylene glycol. Control animals received the vehicle solution without test compound by oral gavage or by an intravenous bolus injection. At the start of the experiment all animals received 0.05 mL of a solution containing [^3H]CE-HDL into the tail vein. [^3H]CE-HDL is a preparation of human HDL containing tritium-labeled cholesteryl ester, and was prepared according to the method of Glenn et al. (Meth. Enzymol., 263, 339-351 (1996)). After 30 minutes, the animals were exsanguinated and blood collected in standard microtainer tubes containing ethylenediamine tetraacetic acid. Blood samples were mixed well and kept on ice until the completion of the experiment. […] The plasma was separated and analyzed by gel filtration chromatography and the relative proportion of [^3H]CE in the VLDL, LDL and HDL regions was determined.
as §1

[5] = Alzet pump 30 mg/day/animal, after fourteen days

Plasma levels of drug (plasma HDL [1]): 100 to 1500 ng/mL
Plasma concentrations of drug (average) (plasma HDL [3]; Alzet pump 30 mg/day/animal up to 14 days, ethanol:propylene glycol vehicle): 1200 ng/mL
inhibition at 60 mg/kg (human CETP (hCETP)): 40%
SMILES: CCc1cc(Oc2cccc(N(Cc3cccc(OC(F)(F)C(F)F)c3)C[C@@H](O)C(F)(F)F)c2)ccc1Cl [Example 8, (2R)-3-[[3-(4-chloro-3-ethylphenoxy)phenyl][[3-(1,1,2,2-tetrafluoro-ethoxy)phenyl]methyl]amino]-1,1,1-trifluoro-2-propanol]
% Change in Lipoprotein Profile HDL (plasma HDL [2]): 12%
% Change in Lipoprotein Profile LDL (plasma HDL [2]): 20%
decrease in HDL compared to pre-dose levels (plasma HDL [3]; [5]): 12%
decrease in total cholesterol compared to pre-dose levels (plasma HDL [3]; [5]): 19%
increase in triglycerides compared to pre-dose levels (plasma HDL [3]; [5]): 17%
% Change in Lipoprotein Profile HDL (plasma HDL [4]): 12%
% Change in Lipoprotein Profile LDL (plasma HDL [4]): −12%
% Change in Lipoprotein Profile VLDL (plasma HDL [4]): −22%
% Inhibition of Transfer (CETP): 35%
